In patent publication US20260069552A1, “Methods of Providing a Cooling Sensation to Skin Afflicted with Eczema” (Kenvue Brands LLC, priority 2022, published 2026):

Tested on: Staphylococcus epidermidis (ATCC 12228)
Test: In vitro bacteria competition assay (co-culture)
Format: cell-based
Conditions: 1:1 co-culture with S. aureus in Nutrient Broth, 24 hours aerobic, CFU/mL; versus untreated; w/v % as in label; n=3
Description: In vitro bacteria competition assay evaluated Staphylococcus epidermidis (ATCC 12228, skin health associated strain) and Staphylococcus aureus (ATCC 6538, human lesion isolate) co-culture in the presence of test materials. Percentages are w/v % in liquid medium (Nutrient Broth, Culture Media and Supplies Inc.) To mimic the microenvironment of the skin surface, an aerobic, co-culture system of S. epidermidis and S. aureus was established. 50 μL S. epidermidis and 50 μL S. aureus (a 1:1 ratio) were inoculated (50 μL at approximately 5.0×10^6 CFU/mL each) in Nutrient Broth and in the presence of the test materials as specified in Table 14 below. [table] Test groups were incubated aerobically for 24 hours (n=3 per test group) After 24 hours, each test group was plated onto agar and incubated aerobically for 24 hours […]. After incubation, colonies were counted, and CFU/mL calculated. S. epidermidis and S. aureus colonies were differentiated on agar (Tryptic Soy Agar+5% sheep's blood, BD Diagnostics) based on representative morphology.

CC(O)C(=O)O (stereo not shown) [Lactic Acid (1.1%), Lactic acid]
S. epidermidis growth in bacteria competition assay: inhibited
